Experimental data as given in the NIST ThermoML archive (doi:10.1021/je900977e).
Values joined by “and” are separate entries in the source; they are usually repeats but may differ in a detail not shown here. Equal values may be shown once. ± gives the expanded uncertainty stated by the source.

Settings: 313.15 K; Liquid; Closed cell (Static) method

## c1ccccc1 [benzene]
  vapor or sublimation pressure: 24.4 ± 0.094 kPa and 24.38 ± 0.094 kPa

## CC(C)OC(C)C [diisopropyl ether]
  vapor or sublimation pressure: 37.11 ± 0.14 kPa and 37.13 ± 0.14 kPa

## CC(C)O [propan-2-ol]
  vapor or sublimation pressure: 13.9 ± 0.06 kPa and 13.89 ± 0.06 kPa
